This note sets out measurements from US20050020565A1, “CCK-1 receptor modulators” (priority 2003, published 2005).

One series concerns the target T1, CCK-1 receptor (Homo sapiens, UniProt P32238).
T1 construct: expressed in transfected cells; membranes
T1 sequence (P32238 1-428): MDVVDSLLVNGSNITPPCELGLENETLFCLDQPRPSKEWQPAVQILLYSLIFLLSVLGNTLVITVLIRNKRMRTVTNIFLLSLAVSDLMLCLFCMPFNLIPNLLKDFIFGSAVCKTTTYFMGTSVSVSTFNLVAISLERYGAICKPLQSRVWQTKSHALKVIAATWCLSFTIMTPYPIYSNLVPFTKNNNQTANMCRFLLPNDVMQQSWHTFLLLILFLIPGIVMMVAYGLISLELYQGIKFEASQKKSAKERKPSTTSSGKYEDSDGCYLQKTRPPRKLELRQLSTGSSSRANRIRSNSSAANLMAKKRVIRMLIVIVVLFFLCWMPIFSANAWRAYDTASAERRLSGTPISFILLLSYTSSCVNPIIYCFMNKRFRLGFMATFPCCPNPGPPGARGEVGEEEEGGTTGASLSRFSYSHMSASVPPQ
Description: CCK-1 receptor radioligand binding assay ([125I]-BH-CCK-8S displacement, membranes of stably transfected CHO-K1 cells). The settings on record: membranes of CHO-K1 cells stably transfected with CCK-1 receptor, 0.3 μM PD-134,308 present. As to the method: CHO-K1 cells that had undergone-stable transfection with the CCK-1 receptor were grown in DMEM supplemented with L-glutamine (2 mM), penicillin (50 units/mL) and streptomycin (50 μg/mL). Cells were cultured under continuous G418 selection (2 mM) and were harvested using a rubber cell scraper. CHO-K1 cells were sub-cultured a maximum of ten times before being reseeded from the original stocks.
Membranes were prepared from the stably transfected CHO-K1 cells. Frozen cell pellets (−40° C.) were thawed in 14 mL of buffer A (10 mM HEPES, 130 mM NaCl, 4.7 mM KCl, 5 mM MgCl, 1 mM EGTA and 15.4 mg/100 mL bacitracin at pH 7.2), adapted from Harper et al. (Br. J. Pharmacol. (1996) 118, pp 1717-1726). The thawed pellets were homogenized using a Polytron PT-10 (7×1 s). The homogenates were centrifuged for 5 min at 1500 rpm (600×g), and the resulting pellets were discarded. The supernatants were re-centrifuged in order to collect the receptor-membrane pellets (25 min 15,000 rpm; 39,800×g), which were re-suspended in buffer A.
All assays were conducted in 96-well plates (GF/B millipore filter plates) using buffer A, with 0.3 μM PD-134,308, for the dilutions. The CCK-2 receptor ligand was included to eliminate the contribution of this receptor subtype to the binding. For the optimal cell number determination experiments 20 pM [1251]-BH—CCK-8S (50 μL 60 pM solution) was incubated with a range of cell concentrations (2.5×105 to 12.5×10^5 cells/well) in a total volume of 150 μL. Total binding of [1251]-BH—CCK-8S was determined in the presence of 15 μL of buffer A. Non-specific binding of [1 251]-BH—CCK-8S was determined in the presence of 15 μL of 100 μM 2-naphthalenesulphonyl L-aspartyl-(2-phenethyl)amide (2-NAP: see R. A. Hull et al., Br. J. Pharmacol. (1993) 108, pp 734-740), a CCK-1 receptor selective antagonist that is structurally unrelated to the radioligand [1251]-BH—CCK-8S. The assay preparation was incubated for 1 h at 21±3° C., and then the assay was terminated upon rapid filtration of the preparation under reduced pressure. The loaded filters were washed three times using undiluted PBS (100 μL), and then the residues were transferred to 5 mL scintillation tubes. Bound radioactivity was determined using a gamma counter (count time=1 min). From these experiments a cell concentration of 1 pellet in 40 mL of buffer (2.5×10^6 cells/mL) was chosen for use in other assays (below). To validate the radioligand concentration and incubation time for the assay, saturation and kinetic binding studies were also conducted (see M. F. Morton, The Pharmacological Characterization of Cholecystokinin Receptors in the Human Gastrointestinal Tract. PhD Thesis, University of London, 2000). The affinity of novel compounds was estimated by incubating membrane preparations with 15 μL of competing ligand (0.1 pM-1 mM) for 60 min at 21±3° C. The assay was then terminated according to the procedure outlined above.
The pKi values were determined using the equation of Cheng and Prusoff (Biochem. Pharmacol. (1973) 22, pp 3099-3108): [formula]
To circumvent problems associated with computer-assisted data analysis of compounds with low affinity, the data obtained in the current study were weighted according to a method described by Morton (2000). In brief, 100% and 0% specific binding were defined independently using total binding and binding obtained in the presence of a high concentration of the reference antagonist, 2-NAP.
Turning to `Cc1ccc(-c2cc(CC(C(=O)O)c3cccc4sccc34)nn2-c2ccc(Cl)c(Cl)c2)cc1` (stereo not drawn) [Example 190], the Ki (as a rule, a dissociation constant, usually derived from enzyme kinetics or from competition with a known ligand) was 10 nM. For the compound `Cc1ccc(-n2nc(CC(C(=O)O)c3cccc(C)c3)cc2-c2cccc(N(C)C)c2)cc1` (stereo not drawn) [Example 91], the affinity corresponds to a Ki of 12.6 nM. The same measure, in the same setting: in the case of `Cc1ccc(-c2cc(CC(C(=O)O)c3cccc4ccccc34)nn2-c2ccc(Cl)c(Cl)c2)cc1` (stereo not drawn) [Example 181] it was 15.8 nM; in that of `Cc1cccc(C(Cc2cc(-c3ccc4c(c3)OCO4)n(-c3ccc(Cl)cc3Cl)n2)C(=O)O)c1` (stereo not drawn) [Example 276], 6.31 nM; in that of `Cc1cccc(C(Cc2cc(-c3ccc(Cl)c(Cl)c3)n(-c3ccc(S(C)(=O)=O)cc3)n2)C(=O)O)c1` (stereo not drawn) [Example 54], 39.8 nM. The same measure, in the same setting: then `Cc1ccc(-c2cc(CC(C(=O)O)c3ccccc3Cl)nn2Cc2ccccc2)cc1` (stereo not drawn) [Example 43], with 100 nM; and `Cc1cccc([C@H](Cc2cc(-c3ccc4ccccc4c3)n(-c3ccccn3)n2)C(=O)O)c1` [Example 92], with 6.31 nM; and `CCOc1ccc(-n2nc(/C=C(\C(=O)O)c3cccc(Cl)c3)cc2-c2ccc3c(c2)OCO3)cc1` [Example 121], with 7.94 nM. Same read-out and setting: then `COc1ccc(-n2nc(/C=C(/C(=O)O)c3cccc(C)c3)cc2-c2ccc(Cl)c(Cl)c2)cc1` [Example 75], with 79.4 nM.

System in another series: not given
Assay: not given
Details: not given
For `COc1ccc(-n2nc(C[C@H](C(=O)[O-])c3cccc(C)c3)cc2-c2ccc(Cl)c(Cl)c2)cc1.[Na+]` (stereo in doubt) [Example 505], the melting point (usually the temperature, or range, at which the solid turns liquid) lay within 280 to 285 °C. The same measure, in the same setting: in the case of `CON(C)C(=O)c1ccc(Cl)c(Cl)c1` [Example 511, 3,4-Dichloro-N-methoxy-N-methyl-benzamide] it was 39.5 to 43.2 °C. The same measure, in the same setting: in the case of `COc1ccc(-n2nc(C[C@H](C(=O)[O-])c3cccc(C)c3)cc2-c2ccc(Cl)c(Cl)c2)cc1.[Na+]` (stereo in doubt) [Example 1] it was 295.5 to 297.5 °C.
